For 74 molecules, IC50 results are on record in patent US20150344457A1, “METHODS OF INHIBITING PRMT5” (EPIZYME, INC., priority 2012, published 2015).

T1 sequence (O14744 with tags, fused parts or gaps): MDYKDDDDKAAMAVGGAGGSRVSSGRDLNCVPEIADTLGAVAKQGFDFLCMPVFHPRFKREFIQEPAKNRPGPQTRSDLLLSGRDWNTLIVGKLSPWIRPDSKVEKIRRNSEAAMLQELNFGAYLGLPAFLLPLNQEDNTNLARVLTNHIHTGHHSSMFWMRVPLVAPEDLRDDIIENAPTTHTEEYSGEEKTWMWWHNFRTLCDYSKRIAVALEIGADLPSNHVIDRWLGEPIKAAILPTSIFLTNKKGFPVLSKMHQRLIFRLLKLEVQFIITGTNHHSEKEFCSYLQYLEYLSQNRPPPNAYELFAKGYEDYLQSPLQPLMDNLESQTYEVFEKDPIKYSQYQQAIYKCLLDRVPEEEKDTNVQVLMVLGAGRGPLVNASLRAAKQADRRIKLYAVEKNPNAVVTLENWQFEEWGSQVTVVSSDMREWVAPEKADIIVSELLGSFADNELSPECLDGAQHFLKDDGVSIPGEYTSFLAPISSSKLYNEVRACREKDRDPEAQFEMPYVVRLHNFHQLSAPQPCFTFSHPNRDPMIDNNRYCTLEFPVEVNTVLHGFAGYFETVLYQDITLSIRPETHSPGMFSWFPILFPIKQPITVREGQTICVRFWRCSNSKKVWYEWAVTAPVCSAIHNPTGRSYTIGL
T1 sequence (Q9BQA1 with tags, fused parts or gaps partner limits assumed): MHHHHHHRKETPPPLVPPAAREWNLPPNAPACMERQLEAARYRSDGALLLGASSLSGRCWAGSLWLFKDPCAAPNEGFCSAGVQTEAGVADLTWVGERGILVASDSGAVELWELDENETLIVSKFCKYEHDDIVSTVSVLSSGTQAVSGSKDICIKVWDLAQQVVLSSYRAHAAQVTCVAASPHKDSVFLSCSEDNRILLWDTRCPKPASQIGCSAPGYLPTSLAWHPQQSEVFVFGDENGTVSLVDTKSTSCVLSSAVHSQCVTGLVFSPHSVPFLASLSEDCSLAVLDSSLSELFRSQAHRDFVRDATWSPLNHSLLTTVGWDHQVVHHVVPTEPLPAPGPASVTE

The first assay addresses T1, PRMT5/MEP50 (Homo sapiens, UniProt O14744).
T1 construct: Expressed full-length human Flag-PRMT5/6His-MeP50 protein complex was purified; made in house; host or cells: Spodoptera frugiperda (SF9) insect cells, baculovirus (pDEST8)
Nature of the assay: PRMT5 Biochemical Assay (PRMT5/MEP50 enzyme assay on peptide substrate, 3H-SAM Flashplate). The conditions noted are these: Table A-2; PRMT5/MEP50 4 nM, 3H-SAM 75 nM, peptide 40 nM; read-out: Biochemical IC50.
As to `O=C(COc1cccc(CN2CCOCC2)c1)NCC(O)CN1CCc2ccccc2C1` (centres unmarked) [Compound A75], the IC50 (in general, the concentration that inhibits the measured activity by half) is below 100 nM. On the same count and under the same terms, with `C[C@H](Oc1cccc2cccnc12)C(=O)NC[C@H](O)CN1CCc2ccccc2C1` [Compound A76] the figure was below 100 nM; with `O=C(COc1ccccc1N1CCOCC1)NC[C@H](O)CN1CCc2ccccc2C1` [Compound A77], below 100 nM. Still for that read-out and setting: with `O=C(COc1ccccc1N1CCNCC1)NCC(O)CN1CCc2ccccc2C1` (centres unmarked) [Compound A79] the figure was below 100 nM; with `CN1C(=O)COc2cccc(OCC(=O)NCC(O)CN3CCc4ccccc4C3)c21` (centres unmarked) [Compound A80], below 100 nM. Turning to `CN1CCOc2cccc(OCC(=O)NCC(O)CN3CCc4ccccc4C3)c21` (centres unmarked) [Compound A81], the IC50 was below 100 nM. For the molecule `Cn1ncc2c(OCC(=O)NCC(O)CN3CCc4ccccc4C3)cccc21` (centres unmarked) [Compound A82], the IC50 was below 100 nM. Consider `O=C(COc1cccc(C(=O)N2CCOCC2)c1)NCC(O)CN1CCc2ccccc2C1` (centres unmarked) [Compound A83], for which the IC50 fell in the range of 101 to 1000 nM.

As for `CN1CCN(c2ccccc2OCC(=O)NC[C@H](O)CN2CCc3ccccc3C2)CC1` [Compound A84], the IC50 is below 100 nM. Take `O=C(COc1ccccc1OCCN1CCOCC1)NC[C@H](O)CN1CCc2ccccc2C1` [Compound A86]: the IC50 was below 100 nM. Same read-out and setting: with `CN(C)CCOc1ccccc1OCC(=O)NC[C@H](O)CN1CCc2ccccc2C1` [Compound A88] the figure was below 100 nM. Same read-out and setting: with `CC(=O)N1CCN(c2ccccc2OCC(=O)NCC(O)CN2CCc3ccccc3C2)CC1` (centres unmarked) [Compound A90] the figure was below 100 nM; with `O=C(COc1cccc2c1CCNC2)NCC(O)CN1CCc2ccccc2C1` (centres unmarked) [Compound A91], below 100 nM. Still for that read-out and setting: the figure for `O=C(COc1cccc2nccnc12)NCC(O)CN1CCc2ccccc2C1` (centres unmarked) [Compound A92] is below 100 nM; for `O=C(COc1cccc(NC2CCOCC2)c1)NCC(O)CN1CCc2ccccc2C1` (centres unmarked) [Compound A93] it is below 100 nM. Regarding `O=C(COc1c(CN2CCOCC2)ccc2cccnc12)NC[C@H](O)CN1CCc2ccccc2C1` [Compound A94], the IC50 is below 100 nM. On the same count and under the same terms, with `O=C(COc1ccc2c(cnn2C2CCNC2)c1)NCC(O)CN1CCc2ccccc2C1` (centres unmarked) [Compound A95] the figure was below 100 nM.

Still in this assay, the particulars now being: Table D-2; read-out: Biochemical IC50.
Take `Cn1cnc2ccc(-c3cccc(NCC(O)CN4CCc5ccccc5C4)c3)cc21` (centres unmarked) [Compound D102]: the IC50 was below 100 nM. Still for that read-out and setting: with `OC(COc1cccc(-c2ccc3ncn(C4CCOCC4)c3c2)c1)CN1CCc2ccccc2C1` (centres unmarked) [Compound D103] the figure was 101 to 1000 nM; with `OC(COc1cccc(-c2ccc3ncn(-c4ccccc4)c3c2)c1)CN1CCc2ccccc2C1` (centres unmarked) [Compound D104], 101 to 1000 nM; with `OC(COc1cccc(-c2ccc3ncn(Cc4ccccc4)c3c2)c1)CN1CCc2ccccc2C1` (centres unmarked) [Compound D105], below 100 nM. Turning to `Cn1ncc2ccc(-c3cccc(OCC(O)CN4CCc5ccccc5C4)c3)cc21` (centres unmarked) [Compound D106], the IC50 was below 100 nM. Still for that read-out and setting: with `OC(COc1cccc(-c2ccc3[nH]ncc3c2)c1)CN1CCc2ccccc2C1` (centres unmarked) [Compound D107] the figure was 101 to 1000 nM; with `Cn1ncc2cc(-c3cccc(OCC(O)CN4CCc5ccccc5C4)c3)ccc21` (centres unmarked) [Compound D108], below 100 nM. Same read-out and setting: the figure for `O=c1[nH]c2ccc(-c3cccc(OCC(O)CN4CCc5ccccc5C4)c3)cc2[nH]1` (centres unmarked) [Compound D109] is 101 to 1000 nM.

Turning to `Cc1ccncc1-c1cccc(OCC(O)CN2CCc3ccccc3C2)c1` (centres unmarked) [Compound D113], the 50% inhibitory concentration (IC50) is 101 to 1000 nM. Still for that read-out and setting: with `CN(CC(O)CN1CCc2ccccc2C1)c1cccc(CNC2CCOCC2)c1` (centres unmarked) [Compound D116] the figure was below 100 nM; with `Cn1cnc2ccc(-c3cccc(NCC(O)CN4CCc5ccccc5C4)n3)cc21` (centres unmarked) [Compound D117], 101 to 1000 nM; with `Cn1cnc2ccc(-c3ccnc(NCC(O)CN4CCc5ccccc5C4)c3)cc21` (centres unmarked) [Compound D118], below 100 nM. Regarding `Cn1cnc2ccc(-c3ccnc(NCC(O)CN4CCc5ccccc5C4)n3)cc21` (centres unmarked) [Compound D119], the IC50 fell in the range of 101 to 1000 nM.

Take `Cn1cnc2ccc(-c3cncc(NCC(O)CN4CCc5ccccc5C4)n3)cc21` (centres unmarked) [Compound D121]: the half-inhibitory concentration (IC50) is 101 to 1000 nM. With `OC(COc1cccc(-c2ccc(C(F)(F)F)cc2C(F)(F)F)c1)CN1CCc2ccccc2C1` (centres unmarked) [Compound D124], the IC50 fell in the range of 101 to 1000 nM. The same measure, in the same setting: the figure for `CN(C)c1ncc(-c2cccc(OCC(O)CN3CCc4ccccc4C3)c2)cn1` (centres unmarked) [Compound D125] is 101 to 1000 nM; for `O=C(c1cccc(-c2cccc(OCC(O)CN3CCc4ccccc4C3)c2)c1)N1CCOCC1` (centres unmarked) [Compound D126] it is 101 to 1000 nM; for `OC(COc1cccc(-c2ccc(C(F)(F)F)cc2Cl)c1)CN1CCc2ccccc2C1` (centres unmarked) [Compound D127] it is 101 to 1000 nM.

For `CS(=O)(=O)Nc1ccc(-c2cccc(OCC(O)CN3CCc4ccccc4C3)c2)cc1` (centres unmarked) [Compound D129], the IC50 was 101 to 1000 nM.

For the molecule `CS(=O)(=O)c1cccc(-c2cccc(OCC(O)CN3CCc4ccccc4C3)c2)c1` (centres unmarked) [Compound D130], the IC50 was in the range of 101 to 1000 nM. Same read-out and setting: with `CS(=O)(=O)c1ccccc1-c1cccc(OCC(O)CN2CCc3ccccc3C2)c1` (centres unmarked) [Compound D131] the figure was 101 to 1000 nM; with `OC(COc1cccc(-c2ccccc2C(F)(F)F)c1)CN1CCc2ccccc2C1` (centres unmarked) [Compound D132], 101 to 1000 nM. On the same count and under the same terms, the figure for `COc1ccc(Cl)cc1-c1cccc(OCC(O)CN2CCc3ccccc3C2)c1` (centres unmarked) [Compound D134] is 101 to 1000 nM; for `COC(=O)c1cccc(-c2cccc(OCC(O)CN3CCc4ccccc4C3)c2)c1` (centres unmarked) [Compound D135] it is 101 to 1000 nM; for `Cn1ncc2ccc(-c3cc(COCC(O)CN4CCc5ccccc5C4)on3)cc21` (centres unmarked) [Compound D136] it is 101 to 1000 nM. For `CC(=O)c1ccc(-c2cccc(OCC(O)CN3CCc4ccccc4C3)c2)cc1` (centres unmarked) [Compound D137], the IC50 is 101 to 1000 nM. For `Cc1ccc(F)c(-c2cccc(OCC(O)CN3CCc4ccccc4C3)c2)c1` (centres unmarked) [Compound D138], the IC50 was in the range of 101 to 1000 nM. Consider `OC(COc1cccc(-c2cccnc2F)c1)CN1CCc2ccccc2C1` (centres unmarked) [Compound D139], for which the IC50 lay within 101 to 1000 nM. Still for that read-out and setting: the figure for `Cn1ccc2cnc(-c3cccc(OCC(O)CN4CCc5ccccc5C4)c3)nc21` (centres unmarked) [Compound D141] is below 100 nM.

On to `O=C(Nc1cccc(OCC(O)CN2CCc3ccccc3C2)c1)c1cnccn1` (centres unmarked) [Compound D145], for which the IC50 lay in the range of 101 to 1000 nM. Still for that read-out and setting: the figure for `Cn1ccc2ccc(-c3cccc(OCC(O)CN4CCc5ccccc5C4)c3)cc21` (centres unmarked) [Compound D147] is 101 to 1000 nM; for `O=C1NCc2ccc(-c3cccc(OCC(O)CN4CCc5ccccc5C4)c3)cc21` (centres unmarked) [Compound D148] it is 101 to 1000 nM. Same read-out and setting: with `CN1CCN(c2ccc(-c3cccc(OCC(O)CN4CCc5ccccc5C4)c3)cn2)CC1` (centres unmarked) [Compound D149] the figure was 101 to 1000 nM; with `CC(C)(C)OCc1cccc(-c2cccc(OCC(O)CN3CCc4ccccc4C3)c2)c1` (centres unmarked) [Compound D150], 101 to 1000 nM. On the same count and under the same terms, the figure for `CN(C)c1ccc(-c2cccc(OCC(O)CN3CCc4ccccc4C3)c2)cc1` (centres unmarked) [Compound D151] is 101 to 1000 nM; for `NC(=O)c1ccc(-c2cccc(OCC(O)CN3CCc4ccccc4C3)c2)cc1` (centres unmarked) [Compound D152] it is 101 to 1000 nM; for `O=C1COc2ccc(-c3cccc(OCC(O)CN4CCc5ccccc5C4)c3)cc2N1` (centres unmarked) [Compound D156] it is 101 to 1000 nM. On to `Cn1nccc1C(=O)Nc1cccc(OCC(O)CN2CCc3ccccc3C2)c1` (centres unmarked) [Compound D160], for which the IC50 lay within 1000 to 10000 nM. Still for that read-out and setting: the figure for `O=C(Nc1cccc(OCC(O)CN2CCc3ccccc3C2)c1)c1cncnc1` (centres unmarked) [Compound D161] is 1000 to 10000 nM; for `Cn1ccc(C(=O)Nc2cccc(OCC(O)CN3CCc4ccccc4C3)c2)n1` (centres unmarked) [Compound D162] it is 1000 to 10000 nM; for `OC(COc1cccc(-c2ccc3cnoc3c2)c1)CN1CCc2ccccc2C1` (centres unmarked) [Compound D166] it is 1000 to 10000 nM. As for `OC(COc1cccc(-c2ccccc2Oc2ccccc2)c1)CN1CCc2ccccc2C1` (centres unmarked) [Compound D167], the IC50 was 101 to 1000 nM. The same measure, in the same setting: with `COc1ccc(-c2cccc(OCC(O)CN3CCc4ccccc4C3)c2)cc1Cl` (centres unmarked) [Compound D168] the figure was 101 to 1000 nM; with `CC(=O)Nc1cccc(-c2cccc(OCC(O)CN3CCc4ccccc4C3)c2)c1` (centres unmarked) [Compound D169], 101 to 1000 nM. Consider `OC(COc1cccc(-c2csc3ccccc23)c1)CN1CCc2ccccc2C1` (centres unmarked) [Compound D170], for which the IC50 was in the range of 101 to 1000 nM. Consider `NC(=O)c1cccc(-c2cccc(OCC(O)CN3CCc4ccccc4C3)c2)c1` (centres unmarked) [Compound D171], for which the IC50 lay within 101 to 1000 nM.

As to `N#Cc1cccc(-c2cccc(OCC(O)CN3CCc4ccccc4C3)c2)c1` (centres unmarked) [Compound D172], the IC50 fell in the range of 101 to 1000 nM. In the case of `Cn1cnc2ccc(-c3cccc(OC[C@H](O)CN4CCc5ccccc5C4)c3)cc21` [Compound D174], the IC50 was below 100 nM. In the case of `Cn1ccc2ccc(-c3cccc(OCC(O)CN4CCc5ccccc5C4)c3)nc21` (centres unmarked) [Compound D176], the IC50 is below 100 nM. On to `COC(=O)c1cncc(-c2cccc(OCC(O)CN3CCc4ccccc4C3)c2)c1` (centres unmarked) [Compound D180], for which the half-maximal inhibitory concentration (IC50) lay in the range of 1000 to 10000 nM. In the case of `CNC(=O)c1cncc(-c2cccc(OCC(O)CN3CCc4ccccc4C3)c2)c1` (centres unmarked) [Compound D182], the IC50 lay within 1000 to 10000 nM. With `Cn1cnc(C(=O)Nc2cccc(OCC(O)CN3CCc4ccccc4C3)c2)c1` (centres unmarked) [Compound D183], the IC50 lay in the range of 1000 to 10000 nM.

As for `O=C(c1cccc(-c2cccc(OCC(O)CN3CCc4ccccc4C3)c2)c1)N1CCCC1` (centres unmarked) [Compound D185], the IC50 is 101 to 1000 nM. `CNC(=O)c1cccc(-c2cccc(OCC(O)CN3CCc4ccccc4C3)c2)c1` (centres unmarked) [Compound D186]: the IC50 was in the range of 101 to 1000 nM. For the molecule `Cc1cn(C)c2cc(-c3cccc(OCC(O)CN4CCc5ccccc5C4)c3)ccc12` (centres unmarked) [Compound D187], the 50% inhibitory concentration (IC50) lay within 101 to 1000 nM. As for `OC(COc1cccc(-c2ccc3ncoc3c2)c1)CN1CCc2ccccc2C1` (centres unmarked) [Compound D188], the IC50 lay within 101 to 1000 nM.

On to `Cn1cnc2ccc(-c3cccc(OCC(O)CN4CCc5ccccc5C4)c3)nc21` (centres unmarked) [Compound D189], for which the IC50 was below 100 nM.
